US20140135310A1, “SULPHONAMIDE DERIVATIVES OF ALICYCLIC AMINES FOR THE TREATMENT OF CENTRAL NERVOUS SYSTEM DISEASES” (Adamed Sp. z o.o., priority 2011, published 2014)

Tests used:
receptors D4.4 = target: T1, receptors D4.4 (Homo sapiens, UniProt P21917); assay: Radioligand binding assay, dopaminergic D4 (D4.4) receptors; details: test compound 1×10^−6 M
T1 sequence (P21917 1-419): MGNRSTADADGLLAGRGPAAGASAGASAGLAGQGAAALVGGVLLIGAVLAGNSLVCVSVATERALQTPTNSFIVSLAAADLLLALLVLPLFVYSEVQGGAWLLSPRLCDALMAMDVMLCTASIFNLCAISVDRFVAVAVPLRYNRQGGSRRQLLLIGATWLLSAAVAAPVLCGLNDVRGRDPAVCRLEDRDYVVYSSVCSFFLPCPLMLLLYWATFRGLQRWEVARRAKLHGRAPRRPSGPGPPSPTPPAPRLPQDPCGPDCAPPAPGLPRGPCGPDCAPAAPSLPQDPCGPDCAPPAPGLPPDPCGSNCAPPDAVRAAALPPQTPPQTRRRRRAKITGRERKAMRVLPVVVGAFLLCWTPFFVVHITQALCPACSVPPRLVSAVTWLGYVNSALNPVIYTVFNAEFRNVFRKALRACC
How it was run: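 Competition radioligand binding at human D2, D3 and D4.4 receptors, detected by scintillation counting; nonspecific binding defined with excess unlabelled ligand. Results as percent inhibition of control specific binding; IC50 by Hill-equation nonlinear regression; Ki via Cheng-Prusoff, with radioligand KD from Scatchard plot.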

[1] = target: T2, 5-HT1A receptor (rat hippocampus) (Rattus norvegicus, UniProt P19327); assay: Radioligand binding assay, serotoninergic 5-HT1A receptors; details: binding assay result in %, Table 5a;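 also: test compound at 1 µM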
T2 construct: hippocampus; from tissue; host or cells: rat hippocampus
T2 sequence (P19327 1-422): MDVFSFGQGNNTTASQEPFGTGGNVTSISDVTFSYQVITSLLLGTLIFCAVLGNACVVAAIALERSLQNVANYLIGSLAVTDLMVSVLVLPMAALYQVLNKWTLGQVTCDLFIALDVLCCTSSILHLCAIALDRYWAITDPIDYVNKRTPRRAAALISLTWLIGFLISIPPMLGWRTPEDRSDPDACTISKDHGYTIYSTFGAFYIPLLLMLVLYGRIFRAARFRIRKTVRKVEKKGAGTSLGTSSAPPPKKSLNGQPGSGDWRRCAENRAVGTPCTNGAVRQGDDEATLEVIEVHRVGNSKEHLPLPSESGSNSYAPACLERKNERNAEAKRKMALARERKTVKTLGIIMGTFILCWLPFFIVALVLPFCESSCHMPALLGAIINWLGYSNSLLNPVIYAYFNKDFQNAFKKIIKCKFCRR

5-HT2A receptor = target: T3, 5-HT2A receptor (Homo sapiens, UniProt P28223); assay: Radioligand binding assay, serotoninergic 5-HT2A receptors; details: binding assay result in %, Table 5a
T3 construct: purchased PerkinElmer
T3 sequence (P28223 whole entry): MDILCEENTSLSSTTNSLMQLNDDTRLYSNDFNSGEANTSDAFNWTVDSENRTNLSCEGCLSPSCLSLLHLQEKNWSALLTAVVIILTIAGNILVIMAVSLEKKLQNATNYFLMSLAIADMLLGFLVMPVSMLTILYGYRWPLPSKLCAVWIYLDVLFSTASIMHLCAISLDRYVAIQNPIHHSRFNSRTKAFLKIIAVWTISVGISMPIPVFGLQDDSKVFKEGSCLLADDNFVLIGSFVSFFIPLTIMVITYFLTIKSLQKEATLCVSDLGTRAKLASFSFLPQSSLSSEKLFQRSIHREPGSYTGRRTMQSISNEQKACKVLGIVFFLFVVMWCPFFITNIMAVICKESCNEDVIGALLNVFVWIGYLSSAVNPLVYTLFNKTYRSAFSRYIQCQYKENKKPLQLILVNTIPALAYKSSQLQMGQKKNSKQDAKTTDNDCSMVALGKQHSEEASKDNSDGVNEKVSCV
How it was run: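 Radioligand competition binding with scintillation counting; nonspecific binding defined by excess unlabelled ligand. Data as percent inhibition of control specific binding. IC50 by Hill-equation fit of competition curves; Ki by Cheng-Prusoff, with radioligand Kd from Scatchard plot.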

5-HT7 receptor = target: T4, 5-HT7 receptor (Homo sapiens, UniProt P34969); assay: Radioligand binding assay, serotoninergic 5-HT7 receptors; details: binding assay result in %, Table 5a;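 also: test compound at 1 µM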
T4 construct: purchased PerkinElmer
T4 sequence (P34969 whole entry): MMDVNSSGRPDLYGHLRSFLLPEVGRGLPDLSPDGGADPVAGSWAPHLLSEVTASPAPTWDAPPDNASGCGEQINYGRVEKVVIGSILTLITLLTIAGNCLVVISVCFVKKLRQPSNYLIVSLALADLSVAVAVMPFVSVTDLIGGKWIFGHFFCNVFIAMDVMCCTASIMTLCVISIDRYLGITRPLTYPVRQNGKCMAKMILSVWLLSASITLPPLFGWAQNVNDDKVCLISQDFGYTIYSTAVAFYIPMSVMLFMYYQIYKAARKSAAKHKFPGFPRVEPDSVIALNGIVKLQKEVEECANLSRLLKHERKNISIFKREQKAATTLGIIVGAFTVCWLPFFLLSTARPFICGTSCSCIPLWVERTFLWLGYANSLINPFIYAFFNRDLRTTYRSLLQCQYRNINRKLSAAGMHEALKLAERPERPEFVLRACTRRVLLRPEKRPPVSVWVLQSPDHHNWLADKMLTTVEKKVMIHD
How it was run: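 Competition binding at human 5-HT7 receptors with a radioligand, detected by scintillation counting; non-specific binding was defined with excess unlabelled ligand. IC50 came from Hill-equation fits of competition curves, and Ki from Cheng–Prusoff using radioligand concentration and Scatchard-derived KD.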

[2] = system: α1 adrenergic receptors (rat cerebral cortex); assay: Radioligand binding assay, adrenergic α1 receptors; details: test compound 1×10^−6 M
How it was run: (§1)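 Values derive from radioligand displacement, with non-specific binding defined by excess cold ligand and detection by scintillation. Hill-fit IC50s were converted to Ki via Cheng-Prusoff using Scatchard-derived Kd; percent inhibition of control specific binding also reported.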

M3 muscarinic receptors = target: T5, M3 muscarinic receptors (Homo sapiens, UniProt P20309); assay: Radioligand binding assay, muscarinic M3 receptors; details: test compound 1×10^−6 M
T5 construct: expressed in transfected cells; host or cells: CHO cells
T5 sequence (P20309 whole entry): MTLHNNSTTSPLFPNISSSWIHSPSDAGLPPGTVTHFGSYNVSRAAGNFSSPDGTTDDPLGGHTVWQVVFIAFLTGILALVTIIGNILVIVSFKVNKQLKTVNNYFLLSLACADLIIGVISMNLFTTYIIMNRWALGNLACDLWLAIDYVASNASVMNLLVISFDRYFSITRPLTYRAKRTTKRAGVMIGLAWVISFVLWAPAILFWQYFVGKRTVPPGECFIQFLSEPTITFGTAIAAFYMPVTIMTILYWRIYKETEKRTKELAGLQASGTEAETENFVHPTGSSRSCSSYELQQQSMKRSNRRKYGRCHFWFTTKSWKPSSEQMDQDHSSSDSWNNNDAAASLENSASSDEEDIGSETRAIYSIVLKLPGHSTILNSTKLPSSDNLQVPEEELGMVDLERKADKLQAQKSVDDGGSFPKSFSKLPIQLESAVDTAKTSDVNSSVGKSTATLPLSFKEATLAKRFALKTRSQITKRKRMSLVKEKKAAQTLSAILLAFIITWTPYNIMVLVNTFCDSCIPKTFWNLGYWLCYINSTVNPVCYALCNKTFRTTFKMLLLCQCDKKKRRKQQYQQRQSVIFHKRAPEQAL
How it was run: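 Radioligand competition binding, detected by scintillation counting; non-specific binding defined with excess unlabelled ligand. Results given as % inhibition of control specific binding; IC50 from Hill-equation fit of competition curves, Ki via Cheng-Prusoff with radioligand KD from Scatchard plot.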

[3] = target: T6, H1 histaminergic receptors (Homo sapiens, UniProt P35367); assay: Radioligand binding assay, histaminergic H1 receptors; details: human recombinant (HEK-293 cells), [3H]pyrilamine 1 nM
T6 construct: expressed in transfected cells; host or cells: HEK-293 cells
T6 sequence (P35367 whole entry): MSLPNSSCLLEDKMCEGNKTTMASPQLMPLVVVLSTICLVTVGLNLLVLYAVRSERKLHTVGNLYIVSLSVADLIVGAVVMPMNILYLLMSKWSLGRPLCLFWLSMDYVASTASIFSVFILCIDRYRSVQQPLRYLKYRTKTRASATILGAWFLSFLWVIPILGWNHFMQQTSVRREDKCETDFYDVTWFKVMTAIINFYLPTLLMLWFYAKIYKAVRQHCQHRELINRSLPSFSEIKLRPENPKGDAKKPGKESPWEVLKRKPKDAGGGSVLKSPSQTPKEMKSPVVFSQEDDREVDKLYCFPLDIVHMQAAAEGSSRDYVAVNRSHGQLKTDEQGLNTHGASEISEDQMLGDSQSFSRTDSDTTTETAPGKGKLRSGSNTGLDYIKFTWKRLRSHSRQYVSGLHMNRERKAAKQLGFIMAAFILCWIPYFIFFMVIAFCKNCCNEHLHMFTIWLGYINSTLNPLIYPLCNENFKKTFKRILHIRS
How it was run: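 Competition binding at human H1 receptors; specific binding taken as total minus non-specific binding in excess unlabelled ligand, scintillation read-out. IC50 from Hill-equation fit of competition curves; Ki by Cheng-Prusoff using radioligand concentration and Kd (from Scatchard plot).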

σ receptors = assay: Radioligand binding assay, σ receptors; details: rat cerebral cortex, [3H]DTG 8 nM
How it was run: as §1

| Compound | inhibition at 1 µM (receptors D4.4) [%] | inhibition at 1 µM [1] [%] | inhibition at 1 µM (5-HT2A receptor) [%] | inhibition at 1 µM (5-HT7 receptor) [%] | α1 [%] [2] [%] | inhibition at 1 µM (M3 muscarinic receptors) [%] | inhibition at 1 µM [3] [%] | σ [%] (σ receptors) | D4.4 [%] (receptors D4.4) | 5-HT1A [%] [1] [%] | 5-HT2A [%] (5-HT2A receptor) | 5-HT7 [%] (5-HT7 receptor) | M3 [%] (M3 muscarinic receptors) | H1 [%] [3] [%] |
| --- | --- | --- | --- | --- | --- | --- | --- | --- | --- | --- | --- | --- | --- | --- |
| Cc1cc(S(=O)(=O)NCC2CCN(CCOc3cccc4c3OCCO4)C2)c(C)s1 (stereo not shown) [Compound 312, N-[[1-[2-(2,3-Dihydro-1,4-benzodioxin-5-yloxy)ethyl]pyrrolidin-3-yl]methyl]-2,5-dimethylthiophene-3-sulphonamide] | 52 | 98 | 87 | 86 | 65 | 10 | 35 | 92 | – | – | – | – | – | – |
| N-[[1-[2-[(2,2-Dimethyl-3H-benzofuran-7-yl)oxy]ethyl]azetidin-3-yl]methyl]-3-hydroxy-benzenesulphonamide [Compound 111] | – | – | – | – | 68 | – | – | 81 | 61 | 99 | 92 | 100 | 14 | 38 |
